Legend:
KLF5 = KLF5 protein expression (Western blot) in cardiac tissue, I/R mice; assay type: in vivo, mouse (C57BL/6); conditions: 30 minutes of ischemia; ML264 25 mg/kg/12 h intraperitoneal
Description: The myocardial ischemia/reperfusion surgical protocol was applied as follows. Mice were anesthetized with 2% isoflurane inhalation until anesthesia was achieved. The animals' body temperature was maintained at 37 °C throughout the surgical procedure using a heating pad. A tracheal tube was placed via tracheal intubation and the respiration rate was set at 150 strokes/min with a tidal volume of 200 μL, using Minivent ventilator for mice (Model 845, Harvard Apparatus). A 1.2 cm incision was made over the left chest. After retraction of the pectoral major and minor muscles, the fourth intercostal space was exposed. […] The left anterior descending coronary artery (LAD) was then located, sutured, and ligated at a site 3-4 mm distal to the origin of the artery under the left atrium using a 6-0 silk suture. The heart was allowed to stabilize for 15 min and right after, ischemia was induced by tightening the suture against a small piece of polyethylene tube. […] The mouse was then monitored during the recovery period, which was generally completed within 3 to 5 minutes. […]
Isolated myocardial tissue/isolated primary murine cardiomyocytes were homogenized in radioimmunoprecipitation assay buffer (RIPA buffer) containing protease and phosphatase inhibitors (Thermo Fischer Scientific, Cat. No.: A32959). […] Relative densitometry was determined, and the β-actin protein was used as a loading control. […]

[1] = test system: myocardial ischemia-reperfusion injury in mice; test: Infarct size evaluation upon Evans Blue/TTC staining after myocardial I/R; assay type: in vivo, mouse (C57BL/6); conditions: ML264 25 mg/kg/12 h intraperitoneal; 30 min ischemia, 24 h reperfusion; vs vehicle
Description: The myocardial ischemia/reperfusion surgical protocol was applied as follows. Mice were anesthetized with 2% isoflurane inhalation until anesthesia was achieved. The animals' body temperature was maintained at 37 °C throughout the surgical procedure using a heating pad. A tracheal tube was placed via tracheal intubation and the respiration rate was set at 150 strokes/min with a tidal volume of 200 μL, using Minivent ventilator for mice (Model 845, Harvard Apparatus). A 1.2 cm incision was made over the left chest. After retraction of the pectoral major and minor muscles, the fourth intercostal space was exposed. […] The left anterior descending coronary artery (LAD) was then located, sutured, and ligated at a site 3-4 mm distal to the origin of the artery under the left atrium using a 6-0 silk suture. The heart was allowed to stabilize for 15 min and right after, ischemia was induced by tightening the suture against a small piece of polyethylene tube. At the end of the 30-minute ischemia period, the ligature was released for the induction of reperfusion, and then the manual evacuation of air and closure of muscle and skin were performed. The mouse was then monitored during the recovery period, which was generally completed within 3 to 5 minutes. Sustain-released buprenorphine (BupSR, 0.5 mg/kg body weight) was provided by subcutaneous injection. Mice were then left to recover until the end of the reperfusion (2 hours, 12 hours, 24 hours, or 4 weeks). The sham group underwent the same surgical procedure except that the LAD was not occluded.
Double staining of the heart with Evans Blue dye and Triphenyl-Tetrazolium Chloride (TTC) solution was employed for infarct size measurements. Mice were anesthetized upon 3% isoflurane inhalation. The thorax was cut and opened, and hearts were gently excised. Then, the aorta was cannulated and perfused with 5 mL of normal saline. The suture was re-tightened and Evans Blue solution (2.5% in WFI) was slowly infused through the aorta, to differentiate the ischemic part of the myocardium from the non-occluded, normally perfused area. The hearts were sliced into 1-2 mm sections immediately following. The heart slices were incubated with TTC solution (1% in PBS, pH=7.4) at 37 °C for 20 min. In this way, the necrotic area is delimited as a white area, while the viable tissue is stained red. […] The overall size of each slice (All/A), the area-at-risk (R), and the infarct area (I) were determined in a blinded manner for each slice using ImageJ software, and the percentages of Area at Risk (R/A) % and I/R % were calculated. […]
Administration of these two compounds was performed 5 minutes before the reopening of the coronary artery and infarct size was assessed upon 30 minutes of ischemia followed by 24 hours of reperfusion therapy.

NOX4 = NOX4 mRNA in myocardium after I/R (real-time PCR); assay type: in vivo, mouse (C57BL/6); conditions: ML264 treatment; 30 min ischemia, 2 h reperfusion
Description: (§1) The myocardial ischemia/reperfusion surgical protocol was applied as follows. Mice were anesthetized with 2% isoflurane inhalation until anesthesia was achieved. The animals' body temperature was maintained at 37 °C throughout the surgical procedure using a heating pad. A tracheal tube was placed via tracheal intubation and the respiration rate was set at 150 strokes/min with a tidal volume of 200 μL, using Minivent ventilator for mice (Model 845, Harvard Apparatus). A 1.2 cm incision was made over the left chest. After retraction of the pectoral major and minor muscles, the fourth intercostal space was exposed. […] The mouse was then monitored during the recovery period, which was generally completed within 3 to 5 minutes. […]
(§2) Total RNA was purified from heart tissue using the TRIzol reagent according to the instructions of the manufacturer (ThermoFischer Scientific, Cat. No.: 15596018). cDNA synthesis was performed using the Applied Biosystems High Capacity cDNA Reverse Transcription Kit (ThermoFischer Scientific, Cat. No.: 4368814) from 500 ng RNA, which had been treated with DNAase I (ThermoFischer Scientific, Cat. No.: 18068015). Quantitative real-time PCR was performed with the SYBR Select Master Mix (ThermoFischer Scientific, Cat. No.: 4472903) using the manufacturer's recommendations. […]

IL-1β = IL-1β mRNA in ischemic myocardium; assay type: in vivo, mouse (C57BL/6); conditions: evaluated at 2 h and 24 h of reperfusion, vs vehicle
Description: as §1, §2

Ugp = Ugp mRNA expression after I/R; assay type: in vivo, mouse; conditions: ML-264 treatment
Description: as §1, §2

CN(C(=O)CNC(=O)/C=C/c1cccc(Cl)c1)C1CCS(=O)(=O)CC1 [ML264]
KLF5 protein expression in cardiac tissue (KLF5): suppression was confirmed | infarct size [1]: significant reduction | NOX4 mRNA levels (NOX4): suppressed | IL-1β mRNA levels (IL-1β): Significant suppression | relative mRNA expression of Ugp (Ugp): did not result in a change

Source: patent publication US20260335279A1, “METHODS OF TREATING ISCHEMIA-REPERFUSION INJURIES” (University of Cincinnati, priority 2022, published 2026)
